Data published in publication PMC6778934, “^99mTc-Labeled LyP-1 for SPECT Imaging of Triple Negative Breast Cancer” (Contrast Media & Molecular Imaging, 2019).

System: 4T1 cells
Format: cell-based, murine
Experimental: 4T1 murine breast carcinoma cells were purchased from American Type Culture Collection (Manassas, VA, USA) and maintained in RPMI-1640 supplemented with 10% fetal bovine serum (FBS, Gibco, Grand Island, NY, USA). To produce breast cancer models, 4-week-old female BALB/c nude mice were purchased from the Shanghai Laboratory Animal Center at the Chinese Academy of Sciences (Shanghai, China) and subcutaneously injected in the left lateral thigh with 1 × 10^6 tumor cells suspended in 100 μL of PBS. All animal experiments were performed according to protocols established by the Ethics Committee of Shanghai General Hospital. To assess potential cytotoxic effects of LyP-1 or ARAL, cell proliferation assays were conducted with CCK-8 (Dojindo Technologies, Kumamoto, Japan). 4T1 cells (1 × 10^4 per well) were plated on 96-well plates in the RPMI-1640 medium with 10% FBS. After 24 h, the medium was replaced by 100 μL of fresh containing different concentrations of LyP-1 or ARAL (0.1, 1, 5, 10, 20, or 50 μM) for another 24 h. Then, 10 μL CCK-8 was added for 2 h. Absorbance was measured at 450 nm using a Varioskan Flash multimode microplate reader (Thermo Fisher Scientific, Waltham, MA, USA).

Q: With `C[C@@H](O)[C@@H]1NC(=O)[C@H](CCCNC(=N)N)NC(=O)[C@H](CCCCN)NC(=O)[C@H](CC(N)=O)NC(=O)CNC(=O)[C@@H](N)CSSC[C@@H](C(=O)O)NC(=O)CNC(=O)[C@H](CCCNC(=N)N)NC1=O` [LyP-1] as the compound, how does the “cell viability compared with that for 0.1–10 μM” value read?
A: slightly but not significantly lower
